The source of these data is patent publication US20080207614A1, “QUINAZOLINE DERIVATIVES FOR THE TREATMENT AND PREVENTION OF DIABETES AND OBESITY” (SK CHEMICALS CO., LTD., priority 2004, published 2008).

In the assay the test system is C2C12 muscle cells. The assay can be described thus: Analysis of glucose absorption (2-deoxyglucose) in differentiated C2C12 muscle cells. It is filed as cell-based. The following applies: test materials 10 μM, times relative to control group. As to the method:
C2C12 muscle cells were cultured in DMEM (Dulbecco's modified Eagle's medium) containing 10% bovine calf serum. When the cell density increased to about 85 to 90%, the culture medium was replaced with 1% bovine calf serum and cell differentiation was induced for 6 days. Completely differentiated cells were cultured for 3 hours with Krebs-Ringer buffer (KRB) containing 5 mM glucose. The test materials were added at a concentration of 10 μM. 30 minutes later, 0.2 μCi 2-deoxyglucose was added. KRB was removed 20 minutes later and the cells were washed for 3 times with cold PBS. The cells were lysed with 0.5N NaOH and counted using a radioactive counter.
Compound `CN1CCN(CCNc2nc(-c3ccccc3)nc3ccccc23)CC1` [Compound 158, [2-(4-Methylpiperazino-1-yl)-ethyl]-(2-phenylquinazolino-4-yl)-amine] yielded a Glucose absorption of 2.0. Then `Fc1cccc(CNc2nc(-c3ccccc3)nc3ccccc23)c1` [Compound 63, (3-Fluorobenzyl)-(2-phenylquinazolino-4-yl)-amine], with 1.1. `Clc1ccc(-c2nc(NCc3ccccc3)c3ccccc3n2)cc1` [Compound 259, Benzyl-[2-(4-chlorophenyl)-quinazolino-4-yl]-amine]: the Glucose absorption is recorded as 1.4. The same measure for `FC(F)(F)c1cccc(CNc2nc(Cc3ccccc3)nc3ccccc23)c1` [Compound 214, (2-Benzylquinazolino-4-yl)-(3-trifluoromethylbenzyl)-amine]: 2.0. `CCSc1nc(NC2CCCC2)c2ccccc2n1` [Compound 28, Cyclopentyl-(2-ethylsulfanylquinazolino-4-yl)-amine] registered a Glucose absorption of 1.1. `c1ccc(-c2nc(NCCCN3CCOCC3)c3ccccc3n2)cc1` [Compound 156, (3-Morpholino-4-ylpropyl)-(2-phenylquinazolino-4-yl)-amine]: the Glucose absorption is 1.1. Then `c1ccc(-c2nc(NCCN3CCCC3)c3ccccc3n2)cc1` [Compound 100, (2-Phenylquinazolino-4-yl)-(2-pyrrolidino-1-ylethyl)-amine], with 1.4; and `COCCNc1nc(-c2ccccc2)nc2ccccc12` [Compound 67, (2-Methoxy-ethyl)-(2-phenylquinazolino-4-yl)-amine], with 0.9; and `COc1ccc(CNc2nc(-c3ccc(Cl)cc3)nc3ccccc23)cc1` [Compound 261, [2-(4-Chlorophenyl)-quinazolino-4-yl]-(4-methoxybenzyl)-amine], with 1.1. `FC(F)(F)c1cccc(CCNc2nc(-c3ccccc3)nc3ccccc23)c1` [Compound 64, (2-Phenylquinazolino-4-yl)-[2-(3-trifluoromethyl-phenyl)-ethyl]-amine] returned a Glucose absorption of 1.2.

`CCSc1nc(NCCCOC(C)C)c2ccccc2n1` [Compound 33, (2-Ethylsulfanylquinazolino-4-yl)-(3-isopropoxypropyl)-amine] displayed a Glucose absorption of 1.2. Then `c1ccc2c(NCc3ccc4c(c3)OCO4)nc(C3CCCCC3)nc2c1` [Compound 206, Benzo[1,3]dioxol-5-ylmethyl-(2-cyclohexylquinazolino-4-yl)-amine], with 1.4. The same measure for `CCCCN(CCO)c1nc(-c2ccccc2)nc2ccccc12` [Compound 157, 2-[Butyl-(2-phenylquinazolino-4-yl)-amino]-ethanol]: 2.0; for `CCSc1nc(NCCc2ccccn2)c2ccccc2n1` [Compound 46, (2-Ethylsulfanylquinazolino-4-yl)-(2-pyridino-2-ylethyl)-amine]: 1.1. The same measure for `OCCNc1nc(-c2cccnc2)nc2ccccc12` [Compound 246, 2-(2-Pyridino-3-ylquinazolino-4-ylamino)-ethanol]: 1.2; for `c1ccc(-c2nc(NCc3ccc4c(c3)OCO4)c3ccccc3n2)cc1` [Compound 65, Benzo[1,3]dioxol-5-ylmethyl-(2-phenylquinazolino-4-yl)-amine]: 1.4. In the case of `OCCOCCNc1nc(-c2ccncc2)nc2ccccc12` [Compound 257, 2-[2-(2-Pyridino-4-ylquinazolino-4-ylamino)-ethoxy]-ethanol], the Glucose absorption was determined as 1.4.

The compound `Clc1ccc(-c2nc(NCc3ccc4c(c3)OCO4)c3ccccc3n2)cc1` [Compound 266, Benzo[1,3]dioxol-5-ylmethyl-[2-(4-chlorophenyl)-quinazolino-4-yl]-amine] came in with a Glucose absorption of 1.1. `FC(F)(F)c1cccc(CNc2nc(-c3ccncc3)nc3ccccc23)c1` [Compound 250, (2-Pyridino-4-ylquinazolino-4-yl)-(3-trifluoromethylbenzyl)-amine] had a Glucose absorption of 1.3.

On to `COc1cc(CNc2nc(-c3ccccc3)nc3ccccc23)cc(OC)c1OC` [Compound 129, (2-Phenylquinazolino-4-yl)-(3,4,5-trimethoxybenzyl)-amine], for which the Glucose absorption is listed as 1.3. For the compound `c1ccc(CCNc2nc(-c3cccnc3)nc3ccccc23)cc1` [Compound 239, Phenethyl-(2-pyridino-3-ylquinazolino-4-yl)-amine], the Glucose absorption amounted to 0.5. In the case of `Cc1nc(NCCO)c2ccccc2n1` [Compound 174, 2-(2-Methylquinazolino-4-ylamino)-ethanol], the Glucose absorption turned out to be 1.2. Then `Fc1ccc(Nc2nc(-c3ccccc3)nc3ccccc23)cc1` [Compound 76, (4-Fluorophenyl)-(2-phenylquinazolino-4-yl)-amine], with 1.0. Regarding `c1ccc(CNc2nc(Cc3ccccc3)nc3ccccc23)cc1` [Compound 211, Benzyl-(2-benzylquinazolino-4-yl)-amine], the Glucose absorption is 1.3.

`COc1ccc(OC)c(CNc2nc(Cc3ccccc3)nc3ccccc23)c1` [Compound 334, (2-Benzylquinazolino-4-yl)-(2,5-dimethoxybenzyl)-amine] registered a Glucose absorption of 1.1. Then `Fc1cccc(CNc2nc(C3CCCCC3)nc3ccccc23)c1` [Compound 207, (2-Cyclohexylquinazolino-4-yl)-(3-fluorobenzyl)-amine], with 2.0; and `OCCNc1nc(Cc2ccccc2)nc2ccccc12` [Compound 222, 2-(2-Benzylquinazolino-4-ylamino)-ethanol], with 1.2.

The compound `OCCOCCNc1nc(C2CCCCC2)nc2ccccc12` [Compound 209, 2-[2-(2-Cyclohexylquinazolino-4-ylamino)-ethoxy]-ethanol] gave a Glucose absorption of 1.1. `c1ccc(-c2nc(NCCc3ccccn3)c3ccccc3n2)cc1` [Compound 102, (2-Phenylquinazolino-4-yl)-(2-pyridino-2-ylethyl)-amine] returned a Glucose absorption of 1.2.

Take `Brc1cccc(Nc2nc(-c3ccccc3)nc3ccccc23)c1` [Compound 83, (3-Bromophenyl)-(2-phenylquinazolino-4-yl)-amine]: the Glucose absorption amounted to 0.7.

In turn, `CCSc1nc(NCCOCCO)c2ccccc2n1` [Compound 50, 2-[2-(2-Ethylsulfanylquinazolino-4-ylamino)-ethoxy]-ethanol] gave a Glucose absorption of 1.2. In the case of `Clc1ccc(-c2nc(NCc3cccc4ccccc34)c3ccccc3n2)cc1` [Compound 265, [2-(4-Chlorophenyl)-quinazolino-4-yl]-naphthaleno-1-ylmethylamine], the Glucose absorption was 1.1. Then `O=C1CCCN1CCCNc1nc(-c2ccccc2)nc2ccccc12` [Compound 150, 1-[3-(2-Phenylquinazolino-4-ylamino)-propyl]-pyrrolidino-2-one], with 2.6; and `c1ccc(Oc2cccc(Nc3nc(-c4ccccc4)nc4ccccc34)c2)cc1` [Compound 81, (3-Phenoxy-phenyl)-(2-phenylquinazolino-4-yl)-amine], with 0.9; and `c1ccc(Oc2ccccc2Nc2nc(-c3ccccc3)nc3ccccc23)cc1` [Compound 80, (2-Phenoxy-phenyl)-(2-phenylquinazolino-4-yl)-amine], with 1.0.
